Measurements published in patent US20030171329A1, “Stable compositions comprising tezacitabine” (priority 2002, published 2003).

Experiment: Stability of FMdC at various concentrations in 100 mM sodium phosphate pH 9 (Example 3, HPLC)
Format: physicochemical
Procedure: In this study the stability of FMdC at various concentrations in 100 mM sodium phosphate pH 9 was studied. FMdC solutions were made up and pH adjusted to target with sodium hydroxide. Solution samples were placed in stoppered glass vials and stored at the various temperatures. […] Flow rate was 1.0 mL/min. FMdC solution samples were diluted in mobile phase to a nominal FMdC concentration of 80 μg/mL, then injected onto the column in a volume of 10 μL. Detection was by UV at 268 nm.

[1] = FMdC 2 mg/mL, 100 mM sodium phosphate pH 9, 25° C., 0 mon
[2] = FMdC 2 mg/mL, 100 mM sodium phosphate pH 9, 25° C., 6 mon
[3] = FMdC 2 mg/mL, 100 mM sodium phosphate pH 9, 25° C., 9 mon
[4] = FMdC 2 mg/mL, 100 mM sodium phosphate pH 9, 25° C., 20 mon
[5] = FMdC 2 mg/mL, 100 mM sodium phosphate pH 9, 40° C., 0 mon
[6] = FMdC 2 mg/mL, 100 mM sodium phosphate pH 9, 40° C., 3 mon
[7] = FMdC 2 mg/mL, 100 mM sodium phosphate pH 9, 40° C., 6 mon
[8] = FMdC 2 mg/mL, 100 mM sodium phosphate pH 9, 40° C., 9 mon
[9] = FMdC 2 mg/mL, 100 mM sodium phosphate pH 9, 50° C., 0 mon
[10] = FMdC 2 mg/mL, 100 mM sodium phosphate pH 9, 50° C., 0.5 mon
[11] = FMdC 2 mg/mL, 100 mM sodium phosphate pH 9, 50° C., 1.0 mon
[12] = FMdC 2 mg/mL, 100 mM sodium phosphate pH 9, 50° C., 2.0 mon
[13] = FMdC 2 mg/mL, 100 mM sodium phosphate pH 9, 50° C., 3.0 mon
[14] = FMdC 10 mg/mL, 100 mM sodium phosphate pH 9, 25° C., 0 mon
[15] = FMdC 10 mg/mL, 100 mM sodium phosphate pH 9, 25° C., 2.8 mon
[16] = FMdC 10 mg/mL, 100 mM sodium phosphate pH 9, 25° C., 4.0 mon
[17] = FMdC 10 mg/mL, 100 mM sodium phosphate pH 9, 25° C., 6.5 mon
[18] = FMdC 10 mg/mL, 100 mM sodium phosphate pH 9, 25° C., 7.9 mon
[19] = FMdC 10 mg/mL, 100 mM sodium phosphate pH 9, 25° C., 16 mon
[20] = FMdC 10 mg/mL, 100 mM sodium phosphate pH 9, 25° C., 23 mon
[21] = FMdC 10 mg/mL, 100 mM sodium phosphate pH 9, 40° C., 0 mon
[22] = FMdC 10 mg/mL, 100 mM sodium phosphate pH 9, 40° C., 2.0 mon
[23] = FMdC 10 mg/mL, 100 mM sodium phosphate pH 9, 40° C., 3.0 mon
[24] = FMdC 10 mg/mL, 100 mM sodium phosphate pH 9, 40° C., 3.7 mon
[25] = FMdC 10 mg/mL, 100 mM sodium phosphate pH 9, 40° C., 4.1 mon
[26] = FMdC 10 mg/mL, 100 mM sodium phosphate pH 9, 50° C., 0 mon
[27] = FMdC 10 mg/mL, 100 mM sodium phosphate pH 9, 50° C., 0.3 mon
[28] = FMdC 10 mg/mL, 100 mM sodium phosphate pH 9, 50° C., 0.7 mon
[29] = FMdC 10 mg/mL, 100 mM sodium phosphate pH 9, 50° C., 0.9 mon
[30] = FMdC 10 mg/mL, 100 mM sodium phosphate pH 9, 50° C., 1.4 mon
[31] = FMdC 10 mg/mL, 100 mM sodium phosphate pH 9, 50° C., 2.1 mon

stability in words (25° C., 2 and 10 mg/mL in 100 mM sodium phosphate pH 9): stable for over eighteen months
FMdC [1]: 100.0 % of initial
pH [1]: 9.18
FMdC [2]: 100.0 % of initial
pH [2]: 9.00
FMdC [3]: 100.5 % of initial
pH [3]: 9.03
FMdC [4]: 100.0 % of initial
pH [4]: 9.00
FMdC [5]: 100.0 % of initial
pH [5]: 9.18
FMdC [6]: 97.0 % of initial
pH [6]: 8.89
FMdC [7]: 92.5 % of initial
pH [7]: 8.55
FMdC [8]: 88.4 % of initial
pH [8]: 8.44
FMdC [9]: 100.0 % of initial
pH [9]: 9.18
FMdC [10]: 100.0 % of initial
pH [10]: 8.84
FMdC [11]: 97.4 % of initial
pH [11]: 8.84
FMdC [12]: 88.7 % of initial
pH [12]: 8.39
FMdC [13]: 80.4 % of initial
pH [13]: 8.16
FMdC [14]: 100.0 % of initial
pH [14]: 9.29
FMdC [15]: 98.9 % of initial
pH [15]: 9.25
FMdC [16]: 100.4 % of initial
pH [16]: 9.17
FMdC [17]: 99.3 % of initial
pH [17]: 9.09
FMdC [18]: 98.1 % of initial
pH [18]: 9.06
FMdC [19]: 97.3 % of initial
pH [19]: 8.73
FMdC [20]: 97.1 % of initial
pH [20]: 8.74
FMdC [21]: 100.0 % of initial
pH [21]: 9.29
FMdC [22]: 98.1 % of initial
pH [22]: 8.60
FMdC [23]: 95.8 % of initial
pH [23]: 8.40
FMdC [24]: 96.9 % of initial
pH [24]: 8.19
FMdC [25]: 94.9 % of initial
pH [25]: 8.08
FMdC [26]: 100.0 % of initial
pH [26]: 9.29
FMdC [27]: 99.6 % of initial
pH [27]: 8.75
FMdC [28]: 94.4 % of initial
pH [28]: 8.24
FMdC [29]: 89.5 % of initial
pH [29]: 7.91
FMdC [30]: 82.0 % of initial
pH [30]: 7.52
FMdC [31]: 67.4 % of initial
pH [31]: 7.01
SMILES: Nc1ccn([C@@H]2O[C@H](CO)[C@@H](O)/C2=C\F)c(=O)n1 [FMdC, (E)-2′-deoxy-2′-(fluoromethylene)cytidine]
